How the values were obtained:
ALOMY [1] = test: Herbicidal pre-emergence action 2a (greenhouse pots, visual scoring); format: in vivo, Alopecurus myosuroides; details: dosage 320 g/ha, visual scoring after about 3 weeks
Text: (§1) [table] a) Seeds of monocotyledonous and dicotyledonous weed plants and crop plants are placed in plastic or organic plant pots and covered with soil. The compounds of the invention, formulated in the form of wettable powders (WP) or as emulsion concentrates (EC), are then applied onto the surface of the covering soil as aqueous suspension or emulsion with addition of 0.5% additive at a water application rate of 600 1/ha (converted). After the treatment, the pots are placed in a greenhouse and kept under good growth conditions for the trial plants. After about 3 weeks, the effect of the preparations is scored visually in comparison with untreated controls as percentages. For example, 100% activity=the plants have died, 0% activity=like control plants. Tables B1 to B15 below show the effects of selected compounds of the general formula (I) according to Tables 1 and 2 on various harmful plants and an application rate corresponding to 320 g/ha and/or 80 g/ha, which were obtained by the experimental procedure mentioned above.

LOLRI [2] = test: Herbicidal post-emergence action 1a (greenhouse pots, visual rating); format: in vivo, Lolium rigidum; details: Dosage 320 g/ha; rated visually about 3 weeks after treatment; 100% = plants have died, 0% = like control plants
Description: (§2) [table] a) Seeds of monocotyledonous and dicotyledonous weeds and crop plants are placed in sandy loam in plastic or organic plant pots, covered with soil and cultivated in a greenhouse under controlled growth conditions. 2 to 3 weeks after sowing, the test plants are treated at the one-leaf stage. The compounds of the invention, formulated in the form of wettable powders (WP) or as emulsion concentrates (EC), are then sprayed onto the green parts of the plants as aqueous suspension or emulsion with addition of 0.5% additive at a water application rate of 600 1/ha (converted). After the test plants have been kept in the greenhouse under optimum growth conditions for about 3 weeks, the activity of the preparations is rated visually in comparison to untreated controls. For example, 100% activity=the plants have died, 0% activity=like control plants. Tables A1 to A15 below show the effects of selected compounds of the general formula (I) according to Tables 1 and 2 on various harmful plants and an application rate corresponding to 320 g/ha and/or 80 g/ha, which were obtained by the experimental procedure mentioned above.

AMARE [3] = test: as above; format: in vivo, Amaranthus retroflexus; details: visual rating about 3 weeks after treatment
Description: as §2

POLCO [4] = test: Herbicidal pre-emergence action 2a (greenhouse pots, visual scoring); format: in vivo, Polygonum convolvulus; details: dosage 320 g/ha, visual scoring after about 3 weeks vs untreated controls
Text: as §1

POLCO [5] = test: Herbicidal post-emergence action 1a (greenhouse pots, visual rating); format: in vivo, Polygonum convolvulus; details: visual rating about 3 weeks after treatment
Description: as §2

AVEFA [6] = test: as above; format: in vivo, Avena fatua; details: Dosage 320 g/ha; rated visually about 3 weeks after treatment; 100% = plants have died, 0% = like control plants
Description: as §2

AVEFA [7] = test: Herbicidal pre-emergence action 2a (greenhouse pots, visual scoring); format: in vivo, Avena fatua; details: dosage 320 g/ha, visual scoring after about 3 weeks
Text: as §1

LOLRI [8] = test: as above; format: in vivo, Lolium rigidum; details: dosage 320 g/ha, visual scoring after about 3 weeks vs untreated controls
Text: as §1

ALOMY [9] = test: Herbicidal post-emergence action 1a (greenhouse pots, visual rating); format: in vivo, Alopecurus myosuroides; details: rated visually about 3 weeks after treatment, 100% = plants have died, 0% = like control plants
Description: as §2

SETVI = test: Herbicidal pre-emergence action 2a (greenhouse pots, visual scoring); format: in vivo, Setaria viridis; details: dosage 320 g/ha, visual scoring after about 3 weeks vs untreated controls
Text: as §1

VERPE [10] = test: as above; format: in vivo, Veronica persica; details: dosage 320 g/ha, visual scoring after about 3 weeks vs untreated controls
Text: as §1

VERPE [11] = test: Herbicidal post-emergence action 1a (greenhouse pots, visual rating); format: in vivo, Veronica persica; details: visual rating about 3 weeks after treatment
Description: as §2

MATIN = test: Herbicidal pre-emergence action 2b (doubly sown, 1280 g/ha); format: in vivo, Matricaria inodora; details: doubly sown pots, dosage 1280 g/ha, visual scoring after about 3 weeks
Text: (§3) [table] b) Seeds of mono- and dicotyledonous weed plants are placed in plastic pots in sandy loam soil (doubly sown with one species each of mono- or dicotyledonous weed plants per pot) and covered with soil. The compounds of the invention, formulated in the form of wettable powders (WP) or as emulsion concentrates (EC), are then applied onto the surface of the covering soil as aqueous suspension or emulsion with addition of 0.5% additive at a water application rate equivalent to 600 litres per hectare. After the treatment, the pots are placed in a greenhouse and kept under good growth conditions for the trial plants. After about 3 weeks, the effect of the preparations is scored visually in comparison with untreated controls as percentages. For example, 100% activity=the plants have died, 0% activity=like control plants. Tables B16 to B21 below show the effects of selected compounds of the general formula (I) according to Tables 1 and 2 on various harmful plants and at an application rate corresponding to 1280 g/ha, which were obtained by the experimental procedure mentioned above.

STEME = test: as above; format: in vivo, Stellaria media; details: doubly sown pots, dosage 1280 g/ha, visual scoring after about 3 weeks
Text: as §3

POAAN = test: as above; format: in vivo, Poa annua; details: doubly sown pots, dosage 1280 g/ha, visual scoring after about 3 weeks
Text: as §3

AMARE [12] = test: as above; format: in vivo, Amaranthus retroflexus; details: doubly sown pots, dosage 1280 g/ha, visual scoring after about 3 weeks
Text: as §3

ECHCG = test: as above; format: in vivo, Echinochloa crus-galli; details: doubly sown pots, dosage 1280 g/ha, visual scoring after about 3 weeks
Text: as §3

AMARE [13] = test: Herbicidal pre-emergence action 2a (greenhouse pots, visual scoring); format: in vivo, Amaranthus retroflexus; details: dosage 320 g/ha, visual scoring after about 3 weeks vs untreated controls
Text: as §1

ABUTH = test: Herbicidal post-emergence action 1a (greenhouse pots, visual rating); format: in vivo, Abutilon theophrasti; details: dosage 80 g/ha, visual rating about 3 weeks after treatment
Description: as §2

PHBPU = test: as above; format: in vivo, Pharbitis purpurea; details: dosage 80 g/ha, visual rating about 3 weeks after treatment
Description: as §2

Which “Pre-emergence action against ALOMY in %” value (ALOMY [1]) does the source give for `CCOC(=O)[C@@H](C)Oc1nn(-c2cnccn2)c(-c2ccc(F)nc2)c1C1CC1` [Example I-88] here?
The value was 100%.

And the “Post-emergence action against LOLRI in %” value (LOLRI [2])?
The value was 100%.

And the “Post-emergence action against AMARE in %” value (AMARE [3]; dosage 320 g/ha)?
Its value is 80%.

What about the “Pre-emergence action against POLCO in %” value (POLCO [4]) of the same compound?
The value was 80%.

And the “Post-emergence action against POLCO in %” value (POLCO [5]; dosage 320 g/ha)?
Its value is 80%.

What about the “Post-emergence action against AVEFA in %” value (AVEFA [6]) of the same compound?
Its value is 100%.

What about the “Pre-emergence action against AVEFA in %” value (AVEFA [7]) of the same compound?
Its value is 90%.

What about the “Pre-emergence action against LOLRI in %” value (LOLRI [8]) of the same compound?
Its value is 100%.

What about the “Post-emergence action against ALOMY in %” value (ALOMY [9]; Dosage 80 g/ha) of the same compound?
Its value is 80%.

What about the “Post-emergence action against ALOMY in %” value (ALOMY [9]; Dosage 320 g/ha) of the same compound?
Its value is 100%.

What about the “Pre-emergence action against SETVI in %” value (SETVI) of the same compound?
The value was 80%.

What about the “Pre-emergence action against VERPE in %” value (VERPE [10]) of the same compound?
The value was 90%.

And the “Post-emergence action against VERPE in %” value (VERPE [11]; dosage 320 g/ha)?
The value was 80%.

With `C=CCNC(=O)COc1nn(-c2cnccn2)c(-c2cccc(F)c2)c1Br` [II-01] as the compound, how does the “Pre-emergence action at 1280 g/ha against MATIN in %” value (MATIN) read?
The value was 100%.

What about the “Pre-emergence action at 1280 g/ha against STEME in %” value (STEME) of the same compound?
The value was 100%.

And the “Pre-emergence action at 1280 g/ha against POAAN in %” value (POAAN)?
Its value is 100%.

And the “Pre-emergence action at 1280 g/ha against AMARE in %” value (AMARE [12])?
The value was 100%.

What about the “Pre-emergence action at 1280 g/ha against ECHCG in %” value (ECHCG) of the same compound?
The value was 90%.

With `COC(=O)CCNC(=O)[C@@H](C)Oc1nn(-c2cnccn2)c(-c2ccc(F)nc2)c1Br` [II-02] as the compound, how does the “Pre-emergence action against ALOMY in %” value (ALOMY [1]) read?
Its value is 80%.

Which “Pre-emergence action against VERPE in %” value (VERPE [10]) does the source give for `C[C@@H](Oc1nn(-c2cnccn2)c(-c2ccc(F)nc2)c1Br)C(=O)NCC1CC1` [II-06] here?
Its value is 100%.

Which “Pre-emergence action against AMARE in %” value (AMARE [13]) does the source give for `COC(=O)CNC(=O)COc1nn(-c2cnccn2)c(-c2ccc(F)nc2)c1Br` [II-08] here?
Its value is 90%.

What about the “Post-emergence action against AMARE in %” value (AMARE [3]; dosage 80 g/ha) of the same compound?
Its value is 80%.

What does the source list for `CCOC(=O)CCNC(=O)COc1nn(-c2cnccn2)c(-c2ccc(F)nc2)c1Br` [II-09]?
Post-emergence action against ABUTH in % (ABUTH): 90%; Post-emergence action against AMARE in % (AMARE [3]; dosage 80 g/ha): 90%; Post-emergence action against POLCO in % (POLCO [5]; dosage 80 g/ha): 80%; Post-emergence action against VERPE in % (VERPE [11]; dosage 80 g/ha): 90%

`O=C(COc1nn(-c2cnccn2)c(-c2ccc(F)nc2)c1Br)NCC1CC1` [II-10] was tested. Which “Post-emergence action against PHBPU in %” value (PHBPU) did it give?
Its value is 80%.

And the “Post-emergence action against AMARE in %” value (AMARE [3]; dosage 80 g/ha)?
The value was 80%.

For `CN(C)S(=O)(=O)NC(=O)COc1nn(-c2cnccn2)c(-c2ccc(F)nc2)c1Br` [II-12], which “Pre-emergence action against AMARE in %” value (AMARE [13]) is on record?
The value was 80%.

And the “Pre-emergence action against SETVI in %” value (SETVI)?
The value was 100%.

With `CC(C)N(C)S(=O)(=O)NC(=O)COc1nn(-c2cnccn2)c(-c2ccc(F)nc2)c1Br` [II-13] as the compound, how does the “Pre-emergence action against AMARE in %” value (AMARE [13]) read?
The value was 90%.

And the “Post-emergence action against AMARE in %” value (AMARE [3]; dosage 80 g/ha)?
Its value is 80%.

For `CS(=O)(=O)NC(=O)COc1nn(-c2cnccn2)c(-c2ccc(F)nc2)c1Br` [II-14], which “Pre-emergence action against AMARE in %” value (AMARE [13]) is on record?
The value was 80%.

Source: patent US20230167088A1, “1-PYRAZINYLPYRAZOLYL-3-OXYALKYL ACIDS AND THEIR DERIVATIVES, AND THEIR USE FOR CONTROL OF UNDESIRED PLANT GROWTH” (BAYER AKTIENGESELLSCHAFT, priority 2020, published 2023)
